Experiments:
Type in all cases: in vivo
kochia (Kochia scoparia) [1] = experiment: Test A preemergence, kochia; conditions: Preemergence, 0 to 100 scale (0 no effect, 100 complete control)
How it was run: (§1)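 Approximately 10-day greenhouse assay. Formulated chemical (non-phytotoxic solvent plus surfactant) applied preemergence to soil over seeds or postemergence to plants of 2 to 10 cm. Endpoint: visual percent control, 0–100.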

[2] = test system: blackgrass (Alopecurus myosuroides); experiment: Test A postemergence, blackgrass; conditions: postemergence, 0 to 100 scale, 0 is no effect, 100 is complete control, approximately 10 days
How it was run: as §1

[3] = test system: pigweed (Amaranthus retroflexus); experiment: Test A preemergence, pigweed; conditions: Preemergence, 0 to 100 scale (0 no effect, 100 complete control)
How it was run: as §1

[4] = test system: barnyardgrass (Echinochloa crus-galli); experiment: Test B flooded paddy test, barnyardgrass; conditions: 250 g ai/ha, Flood; visual rating after 13 to 15 days; scale 0 to 100, 0 is no effect, 100 is complete control
How it was run: (§2)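 Plants grown to 2-leaf stage, pots flooded to 3 cm above soil and compound applied directly to paddy water, depth maintained throughout. After 13-15 days in greenhouse, visual rating against untreated controls on 0-100 scale (0 no effect, 100 complete control).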

[5] = test system: ragweed (common ragweed, Ambrosia elatior); experiment: Test A preemergence, ragweed; conditions: Preemergence, 0 to 100 scale (0 no effect, 100 complete control)
How it was run: as §1

[6] = test system: ryegrass, Italian (Italian ryegrass, Lolium multiflorum); experiment: Test A postemergence, Italian ryegrass; conditions: postemergence, 0 to 100 scale, 0 is no effect, 100 is complete control, approximately 10 days
How it was run: as §1

kochia (Kochia scoparia) [7] = experiment: Test A postemergence, kochia; conditions: postemergence, 0 to 100 scale, 0 is no effect, 100 is complete control, approximately 10 days
How it was run: as §1

[8] = test system: galium (catchweed bedstraw, Galium aparine); experiment: Test A postemergence, galium; conditions: postemergence, 0 to 100 scale, 0 is no effect, 100 is complete control, approximately 10 days
How it was run: as §1

[9] = test system: ragweed (common ragweed, Ambrosia elatior); experiment: Test A postemergence, ragweed; conditions: postemergence, 0 to 100 scale, 0 is no effect, 100 is complete control, approximately 10 days
How it was run: as §1

[10] = test system: barnyardgrass (Echinochloa crus-galli); experiment: Test A postemergence, barnyardgrass; conditions: postemergence, 0 to 100 scale, 0 is no effect, 100 is complete control, approximately 10 days
How it was run: as §1

[11] = test system: sedge, umbrella (small-flower umbrella sedge, Cyperus difformis); experiment: Test B flooded paddy test, umbrella sedge; conditions: 250 g ai/ha, Flood; visual rating after 13 to 15 days; scale 0 to 100, 0 is no effect, 100 is complete control
How it was run: as §2

rice (Oryza sativa) = experiment: Test B flooded paddy test, rice; conditions: 250 g ai/ha, Flood; visual rating after 13 to 15 days; scale 0 to 100, 0 is no effect, 100 is complete control
How it was run: as §2

[12] = test system: ducksalad (Heteranthera limosa); experiment: Test B flooded paddy test, ducksalad; conditions: 250 g ai/ha, Flood; visual rating after 13 to 15 days; scale 0 to 100, 0 is no effect, 100 is complete control
How it was run: as §2

corn (Zea mays) = experiment: Test A postemergence, corn; conditions: postemergence, 0 to 100 scale, 0 is no effect, 100 is complete control, approximately 10 days
How it was run: as §1

[13] = test system: foxtail, giant (giant foxtail, Setaria faberii); experiment: Test A postemergence, giant foxtail; conditions: postemergence, 0 to 100 scale, 0 is no effect, 100 is complete control, approximately 10 days
How it was run: as §1

[14] = test system: pigweed (Amaranthus retroflexus); experiment: Test A postemergence, pigweed; conditions: postemergence, 0 to 100 scale, 0 is no effect, 100 is complete control, approximately 10 days
How it was run: as §1

[15] = test system: foxtail, giant (giant foxtail, Setaria faberii); experiment: Test A preemergence, giant foxtail; conditions: Preemergence, 0 to 100 scale (0 no effect, 100 complete control)
How it was run: as §1

[16] = test system: barnyardgrass (Echinochloa crus-galli); experiment: Test A preemergence, barnyardgrass; conditions: Preemergence, 0 to 100 scale (0 no effect, 100 complete control)
How it was run: as §1

[17] = test system: wheat (Triticum aestivum); experiment: Test A postemergence, wheat; conditions: postemergence, 0 to 100 scale, 0 is no effect, 100 is complete control, approximately 10 days
How it was run: as §1

[18] = test system: ryegrass, Italian (Italian ryegrass, Lolium multiflorum); experiment: Test A preemergence, Italian ryegrass; conditions: Preemergence, 0 to 100 scale (0 no effect, 100 complete control)
How it was run: as §1

SMILES	Plant response rating, Kochia (kochia (Kochia scoparia) [1]; 31 g ai/ha)	Plant response rating, Kochia (kochia (Kochia scoparia) [1]; 125 g ai/ha)	Plant response rating, Blackgrass ([2]; 31 g ai/ha)	Plant response rating, Blackgrass ([2]; 125 g ai/ha)	Plant response rating, Pigweed ([3]; 31 g ai/ha)	Plant response rating, Pigweed ([3]; 125 g ai/ha)	Plant response rating, Barnyardgrass [4]	Plant response rating, Ragweed ([5]; 31 g ai/ha)	Plant response rating, Ragweed ([5]; 125 g ai/ha)	Plant response rating, Ryegrass, Italian ([6]; 31 g ai/ha)	Plant response rating, Ryegrass, Italian ([6]; 125 g ai/ha)	Plant response rating, Kochia (kochia (Kochia scoparia) [7]; 31 g ai/ha)	Plant response rating, Kochia (kochia (Kochia scoparia) [7]; 125 g ai/ha)	Plant response rating, Galium ([8]; 31 g ai/ha)	Plant response rating, Galium ([8]; 125 g ai/ha)	Plant response rating, Ragweed ([9]; 31 g ai/ha)	Plant response rating, Ragweed ([9]; 125 g ai/ha)	Plant response rating, Barnyardgrass ([10]; 31 g ai/ha)	Plant response rating, Barnyardgrass ([10]; 125 g ai/ha)	Plant response rating, Sedge, Umbrella [11]	further results
FC(F)(F)CCCOc1c(Cl)cccc1Oc1ncc(Cl)cn1 [Compound 46]	0	80	0	40	0	100	0	0	0	0	10	50	80	30	70	0	10	0	30	100	Plant response rating, Rice (rice (Oryza sativa)): 0; Plant response rating, Ducksalad [12]: 98; Plant response rating, Corn (corn (Zea mays); 31 g ai/ha): 10; Plant response rating, Corn (corn (Zea mays); 125 g ai/ha): 20; Plant response rating, Foxtail, Giant ([13]; 31 g ai/ha): 20; Plant response rating, Foxtail, Giant ([13]; 125 g ai/ha): 60; Plant response rating, Pigweed ([14]; 31 g ai/ha): 50; Plant response rating, Pigweed ([14]; 125 g ai/ha): 90; Plant response rating, Foxtail, Giant ([15]; 31 g ai/ha): 40; Plant response rating, Foxtail, Giant ([15]; 125 g ai/ha): 100; Plant response rating, Barnyardgrass ([16]; 31 g ai/ha): 10; Plant response rating, Barnyardgrass ([16]; 125 g ai/ha): 80; Plant response rating, Wheat ([17]; 31 g ai/ha): 0; Plant response rating, Wheat ([17]; 125 g ai/ha): 0; Plant response rating, Ryegrass, Italian ([18]; 31 g ai/ha): 0; Plant response rating, Ryegrass, Italian ([18]; 125 g ai/ha): 10
FC(F)(F)/C=C/COc1c(Cl)cccc1Oc1ncc(Cl)cn1 [Compound 47]	0	80	10	50	0	60	0	0	0	0	10	50	90	50	80	0	10	10	40	100	Plant response rating, Rice (rice (Oryza sativa)): 0; Plant response rating, Ducksalad [12]: 85; Plant response rating, Corn (corn (Zea mays); 31 g ai/ha): 10; Plant response rating, Corn (corn (Zea mays); 125 g ai/ha): 20; Plant response rating, Foxtail, Giant ([13]; 31 g ai/ha): 20; Plant response rating, Foxtail, Giant ([13]; 125 g ai/ha): 70; Plant response rating, Pigweed ([14]; 31 g ai/ha): 20; Plant response rating, Pigweed ([14]; 125 g ai/ha): 90; Plant response rating, Foxtail, Giant ([15]; 31 g ai/ha): 30; Plant response rating, Foxtail, Giant ([15]; 125 g ai/ha): 100; Plant response rating, Barnyardgrass ([16]; 31 g ai/ha): 10; Plant response rating, Barnyardgrass ([16]; 125 g ai/ha): 50; Plant response rating, Wheat ([17]; 31 g ai/ha): 0; Plant response rating, Wheat ([17]; 125 g ai/ha): 0; Plant response rating, Ryegrass, Italian ([18]; 31 g ai/ha): 0; Plant response rating, Ryegrass, Italian ([18]; 125 g ai/ha): 10
Cl/C=C/COc1c(Cl)cccc1Oc1ncc(Cl)cn1 [Compound 48]	0	80	0	10	0	60	20	0	0	0	0	60	100	10	30	0	10	10	50	70	Plant response rating, Rice (rice (Oryza sativa)): 20; Plant response rating, Ducksalad [12]: 70; Plant response rating, Corn (corn (Zea mays); 31 g ai/ha): 10; Plant response rating, Corn (corn (Zea mays); 125 g ai/ha): 20; Plant response rating, Foxtail, Giant ([13]; 31 g ai/ha): 20; Plant response rating, Foxtail, Giant ([13]; 125 g ai/ha): 60; Plant response rating, Pigweed ([14]; 31 g ai/ha): 50; Plant response rating, Pigweed ([14]; 125 g ai/ha): 80; Plant response rating, Foxtail, Giant ([15]; 31 g ai/ha): 30; Plant response rating, Foxtail, Giant ([15]; 125 g ai/ha): 80; Plant response rating, Barnyardgrass ([16]; 31 g ai/ha): 10; Plant response rating, Barnyardgrass ([16]; 125 g ai/ha): 60; Plant response rating, Wheat ([17]; 31 g ai/ha): 0; Plant response rating, Wheat ([17]; 125 g ai/ha): 10; Plant response rating, Ryegrass, Italian ([18]; 31 g ai/ha): 0; Plant response rating, Ryegrass, Italian ([18]; 125 g ai/ha): 10
FC(F)(F)C(F)(F)CCCOc1c(Br)cccc1Oc1ncc(Cl)cn1 [Compound 49]	0	0	0	0	0	0	0	0	0	0	20	0	30	10	30	10	20	0	0	0	Plant response rating, Rice (rice (Oryza sativa)): 0; Plant response rating, Ducksalad [12]: 0; Plant response rating, Corn (corn (Zea mays); 31 g ai/ha): 10; Plant response rating, Corn (corn (Zea mays); 125 g ai/ha): 10; Plant response rating, Foxtail, Giant ([13]; 31 g ai/ha): 0; Plant response rating, Foxtail, Giant ([13]; 125 g ai/ha): 10; Plant response rating, Pigweed ([14]; 31 g ai/ha): 10; Plant response rating, Pigweed ([14]; 125 g ai/ha): 60; Plant response rating, Foxtail, Giant ([15]; 31 g ai/ha): 0; Plant response rating, Foxtail, Giant ([15]; 125 g ai/ha): 40; Plant response rating, Barnyardgrass ([16]; 31 g ai/ha): 0; Plant response rating, Barnyardgrass ([16]; 125 g ai/ha): 10; Plant response rating, Wheat ([17]; 31 g ai/ha): 0; Plant response rating, Wheat ([17]; 125 g ai/ha): 0; Plant response rating, Ryegrass, Italian ([18]; 31 g ai/ha): 0; Plant response rating, Ryegrass, Italian ([18]; 125 g ai/ha): 0
CCCOc1c(C#N)cccc1Oc1ncc(Cl)cn1 [Compound 50]	20	100	0	10	20	100	30	0	0	0	0	20	80	10	40	10	10	0	20	60	Plant response rating, Rice (rice (Oryza sativa)): 0; Plant response rating, Ducksalad [12]: 50; Plant response rating, Corn (corn (Zea mays); 31 g ai/ha): 10; Plant response rating, Corn (corn (Zea mays); 125 g ai/ha): 10; Plant response rating, Foxtail, Giant ([13]; 31 g ai/ha): 0; Plant response rating, Foxtail, Giant ([13]; 125 g ai/ha): 20; Plant response rating, Pigweed ([14]; 31 g ai/ha): 20; Plant response rating, Pigweed ([14]; 125 g ai/ha): 70; Plant response rating, Foxtail, Giant ([15]; 31 g ai/ha): 10; Plant response rating, Foxtail, Giant ([15]; 125 g ai/ha): 90; Plant response rating, Barnyardgrass ([16]; 31 g ai/ha): 10; Plant response rating, Barnyardgrass ([16]; 125 g ai/ha): 20; Plant response rating, Wheat ([17]; 31 g ai/ha): 0; Plant response rating, Wheat ([17]; 125 g ai/ha): 0; Plant response rating, Ryegrass, Italian ([18]; 31 g ai/ha): 0; Plant response rating, Ryegrass, Italian ([18]; 125 g ai/ha): 0
